Data reported in patent EP4273147A1, “SUBSTITUTED SPIROLACTAMS, SALTS THEREOF AND THEIR USE AS HERBICIDALLY ACTIVE SUBSTANCES” (Bayer Aktiengesellschaft, priority 2022, dated 2023).

Tests used:
ECHCG [1] = assay: Herbicidal pre-emergence action (Table A2); format: in vivo, Echinochloa crus-galli; conditions: visual grading after ca. 3 weeks
Summary of the method: (§1)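 Sandy loam filled the pots; weed seeds went in as paired sowings of one grass-type and one broadleaf species, then were covered with soil.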

ALOMY [2] = assay: Herbicidal pre-emergence action (Table A9); format: in vivo, Alopecurus myosuroides; conditions: application rate 1280 g/ha; visual grading after ca. 3 weeks
Summary of the method: as §1

ECHCG [3] = assay: Herbicidal pre-emergence action, section C (Table C6); format: in vivo, Echinochloa crus-galli; conditions: application rate 320 g/ha; visual grading after ca. 3 weeks
POAAN [4] = assay: Herbicidal pre-emergence action (Table A7); format: in vivo, Poa annua; conditions: visual grading after ca. 3 weeks
Summary of the method: as §1

LOLRI [5] = assay: Herbicidal pre-emergence action (Table A3); format: in vivo, Lolium rigidum; conditions: application rate 1280 g/ha, visual grading after ca. 3 weeks
Summary of the method: as §1

TRZAS [6] = assay: Pre-emergence effects on crop plants (Table D2); format: in vivo, Triticum aestivum; conditions: crop plant; application rate 320 g/ha; visual grading after ca. 3 weeks
VERPE [7] = assay: Herbicidal pre-emergence action (Table A11); format: in vivo, Veronica persica; conditions: application rate 1280 g/ha; visual grading after ca. 3 weeks
Summary of the method: as §1

ORYZA [8] = assay: Pre-emergence effects on crop plants (Table D3); conditions: crop plant; application rate 320 g/ha; visual grading after ca. 3 weeks
ZEAMX [9] = assay: Post-emergence effects on crop plants (Table F1); format: in vivo, Zea mays; conditions: application rate 320 g/ha, crop plant ZEAMX
Excerpt: (§2) 2 to 3 weeks after sowing, the test plants were sprayed in the single-leaf stage.

VERPE [10] = assay: Herbicidal post-emergence action (Table B10); format: in vivo, Veronica persica; conditions: application rate 1280 g/ha
Summary of the method: (§3)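 Each pot held sandy loam sown with a single mono- or dicot weed species, grown under controlled greenhouse conditions. Test plants were sprayed at the one-leaf stage, and after about 3 weeks of further growth the percentage activity relative to untreated plants was rated visually.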

SETVI [11] = assay: Herbicidal pre-emergence action (Table A5); format: in vivo, Setaria viridis; conditions: visual grading after ca. 3 weeks
Summary of the method: as §1

GLXMA [12] = assay: Post-emergence effects on crop plants (Table F4); format: in vivo, Glycine max; conditions: application rate 320 g/ha, crop plant GLXMA
Excerpt: as §2

ORYZA [13] = assay: Post-emergence effects on crop plants (Table F3); format: in vivo, Oryza sativa; conditions: application rate 320 g/ha, crop plant ORYZA
Excerpt: as §2

TRZAS [14] = assay: Post-emergence effects on crop plants (Table F2); format: in vivo, Triticum aestivum; conditions: application rate 320 g/ha, crop plant TRZAS
Excerpt: as §2

BRSNW [15] = assay: Post-emergence effects on crop plants (Table F5); format: in vivo, Brassica napus; conditions: application rate 80 g/ha, crop plant BRSNW
Excerpt: as §2

SETVI [16] = assay: Herbicidal post-emergence action, section E (Table E8); format: in vivo, Setaria viridis; conditions: application rate 80 g/ha; assessed visually after ca. 3 weeks
Excerpt: as §2

BRSNW [17] = assay: Pre-emergence effects on crop plants (Table D5); format: in vivo, Brassica napus; conditions: crop plant; application rate 320 g/ha; visual grading after ca. 3 weeks
Excerpt: Seeds of mono- and dicotyledonous weed plants and crop plants were sown, in plastic or organic planting pots, in sandy loam and covered with soil. The compounds according to the invention, formulated in the form of wettable powders (WP) or as emulsifiable concentrates (EC), were applied to the surface of the covering soil as aqueous suspension or emulsion, with the addition of 0.5% of an additive, at an application rate of 600 1 of water/ha (converted).
Following treatment, the pots were placed in a greenhouse and kept under optimum growth conditions for the test plants.

ZEAMX [18] = assay: Pre-emergence effects on crop plants (Table D1); format: in vivo, Zea mays; conditions: crop plant; application rate 320 g/ha; visual grading after ca. 3 weeks
ECHCG [19] = assay: Herbicidal post-emergence action, section E (Table E5); format: in vivo, Echinochloa crus-galli; conditions: application rate 320 g/ha; assessed visually after ca. 3 weeks
Excerpt: as §2

VIOTR = assay: Herbicidal post-emergence action, section E (Table E10); format: in vivo, Viola tricolor; conditions: application rate 320 g/ha; assessed visually after ca. 3 weeks
Excerpt: as §2

SETVI [20] = assay: Herbicidal pre-emergence action, section C (Table C10); format: in vivo, Setaria viridis; conditions: visual grading after ca. 3 weeks
DIGSA [21] = assay: Herbicidal pre-emergence action (Table A12); format: in vivo, Digitaria sanguinalis; conditions: application rate 320 g/ha; visual grading after ca. 3 weeks
Summary of the method: as §1

STEME = assay: Herbicidal pre-emergence action (Table A6); format: in vivo, Stellaria media; conditions: visual grading after ca. 3 weeks
Summary of the method: as §1

DIGSA [22] = assay: Herbicidal pre-emergence action, section C (Table C5); format: in vivo, Digitaria sanguinalis; conditions: application rate 320 g/ha; visual grading after ca. 3 weeks
POLCO = assay: Herbicidal pre-emergence action, section C (Table C9); format: in vivo, Polygonum convolvulus; conditions: application rate 320 g/ha; visual grading after ca. 3 weeks
GLXMA [23] = assay: Pre-emergence effects on crop plants (Table D4); format: in vivo, Glycine max; conditions: crop plant; application rate 80 g/ha; visual grading after ca. 3 weeks
ALOMY [24] = assay: Herbicidal post-emergence action (Table B2); format: in vivo, Alopecurus myosuroides; conditions: application rate 1280 g/ha; rated visually after about 3 weeks
Method: (§4) Seeds of mono- and dicotyledonous weed plants were placed in plastic pots in sandy loam soil (doubly sown with in each case one species of mono- or dicotyledonous weed plants per pot), covered with soil and cultivated in a greenhouse under controlled growth conditions. 2 to 3 weeks after sowing, the test plants were treated at the one-leaf stage. […] After the test plants had been kept in the greenhouse under optimum growth conditions for about 3 weeks, the activity of the preparations was rated visually in comparison to untreated controls. For example, 100% activity = the plants have died, 0% activity = like control plants.

KCHSC [25] = assay: Herbicidal pre-emergence action (Table A10); format: in vivo, Kochia scoparia; conditions: application rate 1280 g/ha; visual grading after ca. 3 weeks
Summary of the method: as §1

MATIN = assay: Herbicidal pre-emergence action (Table A4); format: in vivo, Matricaria inodora; conditions: application rate 1280 g/ha; visual grading after ca. 3 weeks
Summary of the method: as §1

KCHSC [26] = assay: Herbicidal post-emergence action (Table B4); format: in vivo, Kochia scoparia; conditions: application rate 1280 g/ha; rated visually after about 3 weeks
Method: as §4

ECHCG [27] = assay: Herbicidal post-emergence action (Table B3); format: in vivo, Echinochloa crus-galli; conditions: Echinochloa crus-galli, post-emergence, 504 h; application rate 1280 g/ha; rated visually after about 3 weeks; read-out: post-emergence activity against ECHCG
Summary of the method: as §3

LOLRI [28] = assay: Herbicidal post-emergence action (Table B5); format: in vivo, Lolium rigidum; conditions: application rate 1280 g/ha; rated visually after about 3 weeks
Method: as §4

POAAN [29] = assay: Herbicidal post-emergence action (Table B7); format: in vivo, Poa annua; conditions: application rate 1280 g/ha
Summary of the method: as §3

AMARE = assay: Herbicidal post-emergence action (Table B11); format: in vivo, Amaranthus retroflexus; conditions: application rate 1280 g/ha
Method: as §4

SMILES: O=C1N(Cc2cccc(F)c2Cl)CCCC12CCCN(Cc1cccc(F)c1Cl)C2=O (racemic) [I-047]
- pre-emergence activity against ECHCG (ECHCG [1]; application rate 320 g/ha): 90%
- pre-emergence activity against ALOMY (ALOMY [2]): 100%
- pre-emergence activity against ECHCG (ECHCG [3]): 80%
- pre-emergence activity against POAAN (POAAN [4]; application rate 1280 g/ha): 100%
- pre-emergence activity against LOLRI (LOLRI [5]): 90%
- pre-emergence activity against TRZAS (TRZAS [6]): 20%
- pre-emergence activity against VERPE (VERPE [7]): 90%
- pre-emergence activity against ORYZA (ORYZA [8]): 0%
- post-emergence activity against ZEAMX (ZEAMX [9]): 10%
- post-emergence activity against VERPE (VERPE [10]): 90%
- pre-emergence activity against SETVI (SETVI [11]; application rate 1280 g/ha): 100%
- post-emergence activity against GLXMA (GLXMA [12]): 20%
- post-emergence activity against ORYZA (ORYZA [13]): 0%
- post-emergence activity against TRZAS (TRZAS [14]): 20%
- post-emergence activity against BRSNW (BRSNW [15]): 20%
- post-emergence activity against SETVI (SETVI [16]): 80%
- pre-emergence activity against BRSNW (BRSNW [17]): 20%
- pre-emergence activity against ZEAMX (ZEAMX [18]): 20%
- post-emergence activity against ECHCG (ECHCG [19]): 80%
- post-emergence activity against VIOTR (VIOTR): 80%
- pre-emergence activity against SETVI (SETVI [20]; application rate 80 g/ha): 80%

SMILES: O=C1N(Cc2cc(F)ccc2Cl)CCCC12CCCN(Cc1cc(F)ccc1Cl)C2=O (racemic) [I-069]
- pre-emergence activity against DIGSA (DIGSA [21]): 100%
- pre-emergence activity against ECHCG (ECHCG [1]; application rate 1280 g/ha): 90%
- pre-emergence activity against ECHCG (ECHCG [3]): 80%
- pre-emergence activity against POAAN (POAAN [4]; application rate 320 g/ha): 100%
- pre-emergence activity against TRZAS (TRZAS [6]): 0%
- pre-emergence activity against STEME (STEME; application rate 320 g/ha): 90%
- pre-emergence activity against VERPE (VERPE [7]): 90%
- pre-emergence activity against DIGSA (DIGSA [22]): 100%
- pre-emergence activity against POLCO (POLCO): 80%
- pre-emergence activity against ORYZA (ORYZA [8]): 20%
- post-emergence activity against ZEAMX (ZEAMX [9]): 20%
- pre-emergence activity against SETVI (SETVI [11]; application rate 320 g/ha): 100%
- post-emergence activity against GLXMA (GLXMA [12]): 20%
- post-emergence activity against ORYZA (ORYZA [13]): 0%
- post-emergence activity against TRZAS (TRZAS [14]): 0%
- pre-emergence activity against GLXMA (GLXMA [23]): 0%
- post-emergence activity against BRSNW (BRSNW [15]): 0%
- pre-emergence activity against BRSNW (BRSNW [17]): 0%
- post-emergence activity against ALOMY (ALOMY [24]): 100%
- post-emergence activity against VIOTR (VIOTR): 90%
- pre-emergence activity against SETVI (SETVI [20]; application rate 320 g/ha): 100%

SMILES: O=C1N(Cc2cccc(F)c2F)CCC12CCN(Cc1cccc(F)c1F)C2=O (racemic) [I-090]
- pre-emergence activity against ECHCG (ECHCG [1]; application rate 1280 g/ha): 100%
- pre-emergence activity against KCHSC (KCHSC [25]): 90%
- pre-emergence activity against LOLRI (LOLRI [5]): 90%
- pre-emergence activity against STEME (STEME; application rate 1280 g/ha): 90%
- pre-emergence activity against SETVI (SETVI [11]; application rate 1280 g/ha): 90%
- pre-emergence activity against MATIN (MATIN): 90%
- post-emergence activity against KCHSC (KCHSC [26]): 90%

SMILES: O=C1N(Cc2cccnc2C(F)(F)F)CCCC12CCCN(Cc1cccnc1C(F)(F)F)C2=O [I-184, (+)-2,8-bis{[2-(trifluoromethyl)pyridin-3-yl]methyl}-2,8-diazaspiro[5.5]undecane-1,7-dione]
- pre-emergence activity against ECHCG (ECHCG [1]; application rate 1280 g/ha): 100%
- pest or weed control at 1280 g/ha (ECHCG [27]): 90%
- pest or weed control at 1280 g/ha (LOLRI [5]; Lolium rigidum, pre-emergence, 504 h, read-out: pre-emergence activity against LOLRI): 90%
- post-emergence activity against VERPE (VERPE [10]): 90%
- post-emergence activity against LOLRI (LOLRI [28]): 90%
- post-emergence activity against POAAN (POAAN [29]): 90%
- post-emergence activity against AMARE (AMARE): 90%
- post-emergence activity against KCHSC (KCHSC [26]): 90%
